Results reported in patent publication US11034672B1, “Tyrosine kinase inhibitor compositions, methods of making and methods of use” (Black Diamond Therapeutics, Inc., priority 2018, dated 2021).

Experiments:
Format in all cases: cell-based
HER2 YVMA [1] = biological target: T1, HER2 YVMA (Homo sapiens, UniProt P04626, INS775YVMA); assay: BaF3 cell proliferation assay, HER2 YVMA (Table B); settings: potency code, 3 days, CellTiterGlo, read-out: HER2 YVMA (Activity for Inhibiting HER2)
T1 construct: expressed in transfected cells; host or cells: BaF3 (murine pro-B)

HER2 S310F [2] = biological target: T2, HER2 S310F (Homo sapiens, UniProt P04626, S310F); assay: BaF3 cell proliferation assay, HER2 S310F (Table B); settings: potency code, 3 days, CellTiterGlo, read-out: HER2 S310F (Activity for Inhibiting HER2)
T2 construct: expressed in transfected cells; host or cells: BaF3 (murine pro-B)

HER2 WT [3] = biological target: T3, HER2 WT (Homo sapiens, UniProt P04626); assay: BaF3 cell proliferation assay, HER2 WT (Table B); settings: potency code, 3 days, CellTiterGlo, read-out: HER2 WT (Activity for Inhibiting HER2)
EGFR NPH [4] = biological target: T4, EGFR NPH (Homo sapiens, UniProt P00533, DUP771-773); assay: Activity for inhibiting EGFR (Table A), EGFR NPH; settings: read-out: EGFR NPH, potency code (IC50)
T4 construct: expressed in transfected cells; host or cells: BaF3 (murine pro-B), retroviral pMXs-IRES-Blasticidin

EGFR SVD [5] = biological target: T5, EGFR SVD (Homo sapiens, UniProt P00533, DUP768-770); assay: Activity for inhibiting EGFR (Table A), EGFR SVD; settings: read-out: EGFR SVD, potency code (IC50)
T5 construct: expressed in transfected cells; host or cells: BaF3 (murine pro-B), retroviral pMXs-IRES-Blasticidin

EGFR WT [6] = biological target: T6, EGFR WT (Homo sapiens, UniProt P00533); assay: BaF3 cell proliferation assay, EGFR WT (Table A); settings: potency code, 3 days, CellTiterGlo, read-out: EGFR WT (Activity for Inhibiting EGFR)
Method in brief: (§1)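 EC50s reflect growth of IL-3-independent BaF3 lines whose proliferation depends on the introduced human receptor variant. Lines were produced by retroviral infection and one week of 10 μg/ml Blasticidin selection.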

EGFR V3 [7] = biological target: T7, EGFR V3 (Homo sapiens, UniProt P00533, DELINS30-297G); assay: Activity for inhibiting EGFR (Table A), EGFR V3 (EGFR-Viii); settings: read-out: EGFR V3, potency code (IC50)
T7 construct: expressed in transfected cells; host or cells: BaF3 (murine pro-B), retroviral pMXs-IRES-Blasticidin

EGFR NPH [8] = biological target: T4, EGFR NPH; assay: BaF3 cell proliferation assay, EGFR NPH (Table A); settings: potency code, 3 days, CellTiterGlo, read-out: EGFR NPH (Activity for Inhibiting EGFR)
Procedure: (§2) Retroviral Production: EGFR mutants were subcloned into pMXs-IRES-Blasticidin (RTV-016, Cell Biolabs, San Diego, Calif.). Retroviral expression vector retrovirus was produced by transient transfection of HEK 293T cells with the retroviral EGFR mutant expression vector pMXs-IRES-Blasticidin (RTV-016, Cell Biolabs), pCMV-Gag-Pol vector and pCMV-VSV-G-Envelope vector. Briefly, HEK 293T/17 cells were plated in 100 mm collagen coated plate (354450, Corning Life Sciences, Tewksbury, Mass.) (4×10^5 per plate) and incubated overnight. The next day, retroviral plasmids (3 μg of EGFR mutant, 1.0 μg of pCMV-Gag-Pol and 0.5 μg pCMV-VSV-G) were mixed in 500 μl of Optimem (31985, Life Technologies). The mixture was incubated at room temperature for 5 min and then added to Optimem containing transfection reagent Lipofectamine (11668, Invitrogen) and incubated for 20 minutes. Mixture was then added dropwise to HEK 293T cells. The next day the medium was replaced with fresh culture medium and retrovirus was harvested @ 24 and 48 hrs.
(§3) Generation of EGFR mutant stable cell lines: BaF3 cells (1.5E5 cells) were infected with 1 ml of viral supernatant supplemented with 8 μg/ml polybrene by centrifuging for 30 min at 1000 rpm. Cells were placed in a 37° C. incubator overnight. Cells were then spun for 5 minutes to pellet the cells. Supernatant was removed and cells re-infected a fresh 1 ml of viral supernatant supplemented with 8 μg/ml polybrene by centrifuging for 30 min at 1000 rpm. Cells were placed in 37° C. incubator overnight. […] After 48 hours cells were selected for retroviral infection in 10 μg/ml Blasticidin for one week. Blasticidin resistant populations were washed twice in phosphate buffered saline before plating in media lacking IL-3 to select for IL-3 independent growth.
(§4) EC50 values were determined with the same application.

HER2 YVMA [9] = biological target: T1, HER2 YVMA; assay: Activity for inhibiting HER2 (Table B), HER2 YVMA; settings: read-out: HER2 YVMA, potency code (IC50)
Procedure: as §4

HER2 S310F [10] = biological target: T2, HER2 S310F; assay: Activity for inhibiting HER2 (Table B), HER2 S310F; settings: read-out: HER2 S310F, potency code (IC50)
Procedure: as §4

EGFR SVD [11] = biological target: T5, EGFR SVD; assay: BaF3 cell proliferation assay, EGFR SVD (Table A); settings: potency code, 3 days, CellTiterGlo, read-out: EGFR SVD (Activity for Inhibiting EGFR)
Procedure: as §2, §3, §4

EGFR V3 [12] = biological target: T7, EGFR V3; assay: BaF3 cell proliferation assay, EGFR V3 (Table A); settings: potency code, 3 days, CellTiterGlo, read-out: EGFR V3 (Activity for Inhibiting EGFR)
Method in brief: as §1

EGFR WT [13] = biological target: T6, EGFR WT; assay: Activity for inhibiting EGFR (Table A), EGFR WT; settings: read-out: EGFR WT, potency code (IC50)
HER2 WT [14] = biological target: T3, HER2 WT; assay: Activity for inhibiting HER2 (Table B), HER2 WT
[15] = Table B, read-out: HER2 WT, potency code (IC50)
[16] = text lists of compounds, read-out: IC50 value for inhibiting wild-type HER2

T5 sequence (P00533 with tags, fused parts or gaps DUP768-770): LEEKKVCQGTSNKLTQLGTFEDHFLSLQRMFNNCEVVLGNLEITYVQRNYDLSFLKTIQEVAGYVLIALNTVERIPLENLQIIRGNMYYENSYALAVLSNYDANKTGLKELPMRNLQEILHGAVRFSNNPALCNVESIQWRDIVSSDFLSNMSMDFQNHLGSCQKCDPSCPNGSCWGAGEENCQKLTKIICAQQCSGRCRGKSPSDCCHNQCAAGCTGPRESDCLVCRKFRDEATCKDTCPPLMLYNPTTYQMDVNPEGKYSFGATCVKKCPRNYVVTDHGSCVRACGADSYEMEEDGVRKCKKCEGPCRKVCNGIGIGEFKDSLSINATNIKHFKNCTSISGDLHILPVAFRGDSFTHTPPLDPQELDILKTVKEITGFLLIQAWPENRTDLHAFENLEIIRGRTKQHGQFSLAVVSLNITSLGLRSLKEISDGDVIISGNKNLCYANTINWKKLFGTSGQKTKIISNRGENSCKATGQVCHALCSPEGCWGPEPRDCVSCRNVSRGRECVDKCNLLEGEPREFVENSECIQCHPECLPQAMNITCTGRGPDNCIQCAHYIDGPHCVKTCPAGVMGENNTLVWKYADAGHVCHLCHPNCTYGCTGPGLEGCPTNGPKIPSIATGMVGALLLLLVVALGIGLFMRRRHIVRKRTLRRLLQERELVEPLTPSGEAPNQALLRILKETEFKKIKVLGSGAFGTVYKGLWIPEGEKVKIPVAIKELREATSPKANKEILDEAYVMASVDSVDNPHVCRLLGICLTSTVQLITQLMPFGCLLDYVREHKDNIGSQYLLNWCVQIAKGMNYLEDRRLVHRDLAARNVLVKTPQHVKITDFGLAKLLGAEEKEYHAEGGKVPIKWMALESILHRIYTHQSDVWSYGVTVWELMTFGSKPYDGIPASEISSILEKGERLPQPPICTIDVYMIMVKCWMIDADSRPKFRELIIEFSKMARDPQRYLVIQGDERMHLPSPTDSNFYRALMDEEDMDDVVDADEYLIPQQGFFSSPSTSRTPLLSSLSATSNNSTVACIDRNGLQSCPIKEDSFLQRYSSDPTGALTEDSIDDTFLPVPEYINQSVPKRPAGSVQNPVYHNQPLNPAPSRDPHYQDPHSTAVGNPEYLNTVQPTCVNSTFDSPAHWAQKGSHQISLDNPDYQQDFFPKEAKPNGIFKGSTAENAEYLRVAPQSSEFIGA
T3 sequence (P04626 23-1255): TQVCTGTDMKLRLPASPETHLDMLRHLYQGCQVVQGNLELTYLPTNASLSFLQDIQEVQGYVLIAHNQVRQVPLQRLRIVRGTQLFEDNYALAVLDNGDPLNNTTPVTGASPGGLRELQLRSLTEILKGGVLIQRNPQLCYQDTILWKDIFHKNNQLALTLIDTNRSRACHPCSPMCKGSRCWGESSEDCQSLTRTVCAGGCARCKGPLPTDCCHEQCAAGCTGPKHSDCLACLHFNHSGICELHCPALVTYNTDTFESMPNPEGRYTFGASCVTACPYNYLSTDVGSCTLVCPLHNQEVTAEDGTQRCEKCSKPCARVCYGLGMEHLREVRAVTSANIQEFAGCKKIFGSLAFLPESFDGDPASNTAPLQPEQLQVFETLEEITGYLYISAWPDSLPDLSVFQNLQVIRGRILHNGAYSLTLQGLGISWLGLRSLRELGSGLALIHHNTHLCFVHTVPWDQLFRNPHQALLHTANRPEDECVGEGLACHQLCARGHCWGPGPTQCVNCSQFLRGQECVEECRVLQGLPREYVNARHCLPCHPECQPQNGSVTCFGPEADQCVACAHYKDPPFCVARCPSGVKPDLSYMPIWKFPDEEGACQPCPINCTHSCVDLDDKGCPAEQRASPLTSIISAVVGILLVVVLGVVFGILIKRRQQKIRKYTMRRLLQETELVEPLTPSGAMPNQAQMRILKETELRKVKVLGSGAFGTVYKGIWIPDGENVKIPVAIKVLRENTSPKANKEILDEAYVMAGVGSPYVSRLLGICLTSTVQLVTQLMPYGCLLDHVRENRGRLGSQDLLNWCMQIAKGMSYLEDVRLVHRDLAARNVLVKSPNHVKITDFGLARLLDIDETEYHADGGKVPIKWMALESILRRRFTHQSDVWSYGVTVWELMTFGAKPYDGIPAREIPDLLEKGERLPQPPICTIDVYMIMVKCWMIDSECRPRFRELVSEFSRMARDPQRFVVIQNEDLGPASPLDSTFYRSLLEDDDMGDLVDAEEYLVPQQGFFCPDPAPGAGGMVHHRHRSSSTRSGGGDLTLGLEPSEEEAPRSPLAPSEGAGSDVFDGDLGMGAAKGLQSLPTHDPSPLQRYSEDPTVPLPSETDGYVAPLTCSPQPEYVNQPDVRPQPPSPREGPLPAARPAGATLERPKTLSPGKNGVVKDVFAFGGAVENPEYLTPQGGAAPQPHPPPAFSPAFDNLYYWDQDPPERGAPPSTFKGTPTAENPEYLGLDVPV
T2 sequence (P04626 23-1255 S310F): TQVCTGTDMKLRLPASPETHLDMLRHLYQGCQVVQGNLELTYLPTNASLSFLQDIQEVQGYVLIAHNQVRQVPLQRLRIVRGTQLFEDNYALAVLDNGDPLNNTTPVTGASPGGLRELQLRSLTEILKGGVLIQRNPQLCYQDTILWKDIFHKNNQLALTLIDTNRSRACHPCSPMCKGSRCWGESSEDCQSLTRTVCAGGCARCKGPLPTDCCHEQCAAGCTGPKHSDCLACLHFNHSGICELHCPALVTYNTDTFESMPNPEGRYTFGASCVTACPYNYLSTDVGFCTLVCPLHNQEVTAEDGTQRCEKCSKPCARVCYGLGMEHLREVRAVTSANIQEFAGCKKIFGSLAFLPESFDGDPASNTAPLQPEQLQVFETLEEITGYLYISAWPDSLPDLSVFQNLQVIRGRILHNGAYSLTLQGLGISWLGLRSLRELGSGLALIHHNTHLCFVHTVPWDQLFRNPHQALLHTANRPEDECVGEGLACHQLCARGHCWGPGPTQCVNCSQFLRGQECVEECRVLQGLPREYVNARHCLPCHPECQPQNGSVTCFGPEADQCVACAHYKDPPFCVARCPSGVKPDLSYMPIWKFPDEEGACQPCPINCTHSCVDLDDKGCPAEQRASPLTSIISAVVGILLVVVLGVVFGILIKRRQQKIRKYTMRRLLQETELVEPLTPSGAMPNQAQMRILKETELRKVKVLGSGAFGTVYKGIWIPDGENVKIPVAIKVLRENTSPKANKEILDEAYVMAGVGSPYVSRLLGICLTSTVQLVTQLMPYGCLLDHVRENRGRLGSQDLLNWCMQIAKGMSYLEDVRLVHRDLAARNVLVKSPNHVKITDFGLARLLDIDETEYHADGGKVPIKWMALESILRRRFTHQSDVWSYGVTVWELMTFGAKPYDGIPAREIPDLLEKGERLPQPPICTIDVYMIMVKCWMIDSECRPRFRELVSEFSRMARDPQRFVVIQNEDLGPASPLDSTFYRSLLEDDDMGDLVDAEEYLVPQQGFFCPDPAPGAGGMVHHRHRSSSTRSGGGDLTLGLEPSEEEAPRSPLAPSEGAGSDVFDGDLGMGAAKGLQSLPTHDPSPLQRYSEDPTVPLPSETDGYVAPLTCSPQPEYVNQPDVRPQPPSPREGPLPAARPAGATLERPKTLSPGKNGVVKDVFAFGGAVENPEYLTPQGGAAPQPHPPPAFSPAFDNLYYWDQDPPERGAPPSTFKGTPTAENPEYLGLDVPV
T1 sequence (P04626 with tags, fused parts or gaps INS775YVMA): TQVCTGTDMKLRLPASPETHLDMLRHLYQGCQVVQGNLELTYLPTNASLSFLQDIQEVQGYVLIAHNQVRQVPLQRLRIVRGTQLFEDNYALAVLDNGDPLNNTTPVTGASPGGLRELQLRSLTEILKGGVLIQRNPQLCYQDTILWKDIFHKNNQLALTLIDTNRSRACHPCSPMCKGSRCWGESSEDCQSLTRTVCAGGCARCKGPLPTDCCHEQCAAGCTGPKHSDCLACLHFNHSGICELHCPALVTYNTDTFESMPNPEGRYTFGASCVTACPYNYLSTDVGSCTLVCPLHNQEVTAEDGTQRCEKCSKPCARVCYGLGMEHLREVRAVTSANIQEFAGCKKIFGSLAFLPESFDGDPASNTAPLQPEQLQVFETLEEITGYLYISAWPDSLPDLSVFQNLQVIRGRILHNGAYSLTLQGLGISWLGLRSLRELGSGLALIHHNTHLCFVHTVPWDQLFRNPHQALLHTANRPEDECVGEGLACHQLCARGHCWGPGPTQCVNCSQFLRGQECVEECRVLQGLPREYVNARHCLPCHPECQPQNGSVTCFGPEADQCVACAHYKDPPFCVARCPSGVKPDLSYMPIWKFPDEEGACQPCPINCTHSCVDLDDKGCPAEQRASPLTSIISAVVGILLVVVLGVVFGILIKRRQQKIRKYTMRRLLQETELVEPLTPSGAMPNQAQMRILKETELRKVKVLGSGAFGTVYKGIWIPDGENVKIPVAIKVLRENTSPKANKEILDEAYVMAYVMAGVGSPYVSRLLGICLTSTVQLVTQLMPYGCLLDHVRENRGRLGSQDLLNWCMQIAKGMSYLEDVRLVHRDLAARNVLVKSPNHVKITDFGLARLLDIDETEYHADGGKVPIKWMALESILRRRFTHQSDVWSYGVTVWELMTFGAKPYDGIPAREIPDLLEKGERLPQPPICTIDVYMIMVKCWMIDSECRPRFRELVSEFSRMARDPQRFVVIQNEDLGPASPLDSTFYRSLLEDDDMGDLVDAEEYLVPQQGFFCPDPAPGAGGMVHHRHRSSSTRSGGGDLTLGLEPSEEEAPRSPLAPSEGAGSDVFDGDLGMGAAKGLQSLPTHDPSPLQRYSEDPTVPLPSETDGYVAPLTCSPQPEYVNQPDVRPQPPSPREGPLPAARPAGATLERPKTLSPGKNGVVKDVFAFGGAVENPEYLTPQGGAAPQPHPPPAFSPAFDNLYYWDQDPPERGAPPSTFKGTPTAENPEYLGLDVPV

C=CC(=O)Nc1cc2c(Nc3ccc(OCc4ccccn4)c(Cl)c3)ncnc2cc1OC1CN(C)C1 [compound 25]
IC50 (HER2 YVMA [1]): 50 to 100 nM | IC50 (HER2 S310F [2]): 10 to 20 nM | IC50 (HER2 WT [3]): 10 to 20 nM | IC50 (EGFR NPH [4]): 20 to 30 nM | IC50 (EGFR SVD [5]): 30 to 50 nM | IC50 (EGFR WT [6]): 500 to 1000 nM | IC50 (EGFR V3 [7]): 200 to 300 nM | IC50 (EGFR NPH [8]): 20 to 30 nM | IC50 (HER2 YVMA [9]): 50 to 100 nM | IC50 (HER2 S310F [10]): 10 to 20 nM | IC50 (EGFR SVD [11]): 30 to 50 nM | IC50 (EGFR V3 [12]): 200 to 300 nM | IC50 (EGFR WT [13]): 500 to 1000 nM | IC50 (HER2 WT [14]; [15]): 10 to 20 nM | IC50 (HER2 WT [14]; [16]): ≤ 20 nM

C=CC(=O)Nc1cc2c(Nc3ccc(OCc4ccccn4)c(Cl)c3)ncnc2cc1OCC1(N(C)C)CC1 [compound 54]
IC50 (HER2 YVMA [1]): 100 to 200 nM | IC50 (HER2 S310F [2]): 20 to 30 nM | IC50 (HER2 WT [3]): 5 to 10 nM | IC50 (EGFR NPH [4]): 100 to 200 nM | IC50 (EGFR SVD [5]): 50 to 100 nM | IC50 (EGFR WT [6]): > 1000 nM | IC50 (EGFR V3 [7]): 10 to 20 nM | IC50 (EGFR NPH [8]): 100 to 200 nM | IC50 (HER2 YVMA [9]): 100 to 200 nM | IC50 (HER2 S310F [10]): 20 to 30 nM | IC50 (EGFR SVD [11]): 50 to 100 nM | IC50 (EGFR V3 [12]): 10 to 20 nM | IC50 (EGFR WT [13]): > 1000 nM | IC50 (HER2 WT [14]; [15]): 5 to 10 nM | IC50 (HER2 WT [14]; [16]): ≤ 10 nM

C=CC(=O)Nc1cc2c(Nc3ccc(OCc4ccccn4)c(Cl)c3)ncnc2cc1C#CC(C)(C)N(C)C [compound 66]
IC50 (HER2 YVMA [1]): 50 to 100 nM | IC50 (HER2 S310F [2]): 10 to 20 nM | IC50 (HER2 WT [3]): 50 to 100 nM | IC50 (EGFR NPH [4]): 100 to 200 nM | IC50 (EGFR SVD [5]): 50 to 100 nM | IC50 (EGFR WT [6]): 500 to 1000 nM | IC50 (EGFR V3 [7]): 20 to 30 nM | IC50 (EGFR NPH [8]): 100 to 200 nM | IC50 (HER2 YVMA [9]): 50 to 100 nM | IC50 (HER2 S310F [10]): 10 to 20 nM | IC50 (EGFR SVD [11]): 50 to 100 nM | IC50 (EGFR V3 [12]): 20 to 30 nM | IC50 (EGFR WT [13]): 500 to 1000 nM | IC50 (HER2 WT [14]; [15]): 50 to 100 nM

C=CC(=O)Nc1cc2c(Nc3ccc(OCc4ccccn4)c(Cl)c3)ncnc2cc1N1CCC(N(C)C)CC1 [compound 78]
IC50 (HER2 YVMA [1]): 500 to 1000 nM | IC50 (HER2 S310F [2]): 50 to 100 nM | IC50 (HER2 WT [3]): 10 to 20 nM | IC50 (EGFR NPH [4]): 300 to 500 nM | IC50 (EGFR SVD [5]): 200 to 300 nM | IC50 (EGFR WT [6]): > 1000 nM | IC50 (EGFR V3 [7]): 30 to 50 nM | IC50 (EGFR NPH [8]): 300 to 500 nM | IC50 (HER2 YVMA [9]): 500 to 1000 nM | IC50 (HER2 S310F [10]): 50 to 100 nM | IC50 (EGFR SVD [11]): 200 to 300 nM | IC50 (EGFR V3 [12]): 30 to 50 nM | IC50 (EGFR WT [13]): > 1000 nM | IC50 (HER2 WT [14]; [15]): 10 to 20 nM | IC50 (HER2 WT [14]; [16]): ≤ 20 nM

C=CC(=O)Nc1cc2c(Nc3ccc(OCc4ccccn4)c(Cl)c3)ncnc2cc1OCCN1CCN(C)CC1 [compound 40]
IC50 (HER2 YVMA [1]): 20 to 30 nM | IC50 (HER2 S310F [2]): 10 to 20 nM | IC50 (HER2 WT [3]): < 5 nM | IC50 (EGFR NPH [4]): 10 to 20 nM | IC50 (EGFR SVD [5]): 10 to 20 nM | IC50 (EGFR WT [6]): 200 to 300 nM | IC50 (EGFR V3 [7]): 10 to 20 nM | IC50 (EGFR NPH [8]): 10 to 20 nM | IC50 (HER2 YVMA [9]): 20 to 30 nM | IC50 (HER2 S310F [10]): 10 to 20 nM | IC50 (EGFR SVD [11]): 10 to 20 nM | IC50 (EGFR V3 [12]): 10 to 20 nM | IC50 (EGFR WT [13]): 200 to 300 nM | IC50 (HER2 WT [14]; [15]): < 5 nM | IC50 (HER2 WT [14]; [16]): ≤ 10 nM

C=CC(=O)Nc1cc2c(Nc3ccc(OCc4ccccn4)c(Cl)c3)ncnc2cc1OCCCN1CC2CC1CO2 (centres unmarked) [compound 20]
IC50 (HER2 YVMA [1]): 10 to 20 nM | IC50 (HER2 S310F [2]): 10 to 20 nM | IC50 (HER2 WT [3]): < 5 nM | IC50 (EGFR NPH [4]): 10 to 20 nM | IC50 (EGFR SVD [5]): 10 to 20 nM | IC50 (EGFR WT [6]): 200 to 300 nM | IC50 (EGFR V3 [7]): 20 to 30 nM | IC50 (EGFR NPH [8]): 10 to 20 nM | IC50 (HER2 YVMA [9]): 10 to 20 nM | IC50 (HER2 S310F [10]): 10 to 20 nM | IC50 (EGFR SVD [11]): 10 to 20 nM | IC50 (EGFR V3 [12]): 20 to 30 nM | IC50 (EGFR WT [13]): 200 to 300 nM | IC50 (HER2 WT [14]; [15]): < 5 nM | IC50 (HER2 WT [14]; [16]): ≤ 10 nM
